In general, IC50 refers to the concentration that gives 50% inhibition.

Experimental findings from patent US20160214996A1, “MACROCYCLIC COMPOUNDS FOR THE TREATMENT OF PROLIFERATIVE DISEASES” (CS Pharmasciences, Inc., priority 2013, published 2016) are described below.

The target in one test is T1, ALK wild type (Homo sapiens, UniProt Q9UM73).
T1 construct: purchased Carna Biosciences (Japan)
The test can be described thus: ALK wild type standard HTRF enzyme assay. It counts as biochemical. The conditions noted are these: 0.5 nM ALK wild type, 30 μM ATP, 90 minutes at room temperature, read-out: IC50 (nM) ALK_wt. As to the method:
(§1) Wild type ALK and L1196M mutant ALK enzyme inhibition by the compounds of formula (I) was measured using an HTRF assay.
(§2) ALK wild type and ALK L1196M were acquired from Carna Biosciences (Japan). A standard HTRF kit (containing Eu-labeled TK1 antibody, XL665, biotin conjugated TK1 peptide, 5× enzymatic buffer and 1×HTRF detection buffer) were purchased from Cis-Bio International. Plates were read on an Envision multi-label plate reader (Perkin Elmer).
(§3) In both assays, the compounds were tested in 11 doses in duplicate with 3-fold dilution as the final concentrations were from 10 μM to 0.17 nM. Compound 13a was tested with lower top concentrations of 1 μM due to high potency.
The enzyme reaction mixture of ALK wild type standard HTRF assay contained 0.5 nM ALK wild type, 1 μM biotin-TK1 peptide, 30 μM ATP and 50 nM SEB in 1× enzymatic reaction buffer containing 50 mM (pH 7.0) HEPES, 5 mM MgCl2, 0.02% NaN3, 0.01% BSA, 0.1 mM Orthovanadate and 1 mM DTT at a final volume of 10 μl. The enzyme reaction was carried out at room temperature in white Proxiplate 384-Plus plate (PerkinElmer) for 90 minutes.
(§4) The detection reagents ([…]) were added at final concentrations of 2 nM antibody and 62.5 nM XL665. The plates were incubated at room temperature for 60 minutes and then read in the Envision plate reader.
(§5) The readouts were transformed into inhibition rate % by the equation of (Ratio-Min)/(Max-Min)*100%.
(In TR-FRET formats the signal depends on donor and acceptor labels being close together.)

The next test has as its target T2, ALK L1196M (Homo sapiens, UniProt Q9UM73, L1196M).
T2 construct: purchased Carna Biosciences (Japan)
Put plainly: ALK L1196M standard HTRF enzyme assay. It counts as biochemical. The conditions noted are these: 0.15 nM ALK L1196M, 30 μM ATP, 60 minutes at room temperature, read-out: IC50 (nM) ALK_L1196M. As to the method: as §1, §2, §3
[…]. The enzyme reaction was carried out at room temperature in white Proxiplate 384-Plus plate (PerkinElmer) for 60 minutes.
as §4, §5

The structures appear in SMILES notation.

T1 sequence (Q9UM73 19-1620): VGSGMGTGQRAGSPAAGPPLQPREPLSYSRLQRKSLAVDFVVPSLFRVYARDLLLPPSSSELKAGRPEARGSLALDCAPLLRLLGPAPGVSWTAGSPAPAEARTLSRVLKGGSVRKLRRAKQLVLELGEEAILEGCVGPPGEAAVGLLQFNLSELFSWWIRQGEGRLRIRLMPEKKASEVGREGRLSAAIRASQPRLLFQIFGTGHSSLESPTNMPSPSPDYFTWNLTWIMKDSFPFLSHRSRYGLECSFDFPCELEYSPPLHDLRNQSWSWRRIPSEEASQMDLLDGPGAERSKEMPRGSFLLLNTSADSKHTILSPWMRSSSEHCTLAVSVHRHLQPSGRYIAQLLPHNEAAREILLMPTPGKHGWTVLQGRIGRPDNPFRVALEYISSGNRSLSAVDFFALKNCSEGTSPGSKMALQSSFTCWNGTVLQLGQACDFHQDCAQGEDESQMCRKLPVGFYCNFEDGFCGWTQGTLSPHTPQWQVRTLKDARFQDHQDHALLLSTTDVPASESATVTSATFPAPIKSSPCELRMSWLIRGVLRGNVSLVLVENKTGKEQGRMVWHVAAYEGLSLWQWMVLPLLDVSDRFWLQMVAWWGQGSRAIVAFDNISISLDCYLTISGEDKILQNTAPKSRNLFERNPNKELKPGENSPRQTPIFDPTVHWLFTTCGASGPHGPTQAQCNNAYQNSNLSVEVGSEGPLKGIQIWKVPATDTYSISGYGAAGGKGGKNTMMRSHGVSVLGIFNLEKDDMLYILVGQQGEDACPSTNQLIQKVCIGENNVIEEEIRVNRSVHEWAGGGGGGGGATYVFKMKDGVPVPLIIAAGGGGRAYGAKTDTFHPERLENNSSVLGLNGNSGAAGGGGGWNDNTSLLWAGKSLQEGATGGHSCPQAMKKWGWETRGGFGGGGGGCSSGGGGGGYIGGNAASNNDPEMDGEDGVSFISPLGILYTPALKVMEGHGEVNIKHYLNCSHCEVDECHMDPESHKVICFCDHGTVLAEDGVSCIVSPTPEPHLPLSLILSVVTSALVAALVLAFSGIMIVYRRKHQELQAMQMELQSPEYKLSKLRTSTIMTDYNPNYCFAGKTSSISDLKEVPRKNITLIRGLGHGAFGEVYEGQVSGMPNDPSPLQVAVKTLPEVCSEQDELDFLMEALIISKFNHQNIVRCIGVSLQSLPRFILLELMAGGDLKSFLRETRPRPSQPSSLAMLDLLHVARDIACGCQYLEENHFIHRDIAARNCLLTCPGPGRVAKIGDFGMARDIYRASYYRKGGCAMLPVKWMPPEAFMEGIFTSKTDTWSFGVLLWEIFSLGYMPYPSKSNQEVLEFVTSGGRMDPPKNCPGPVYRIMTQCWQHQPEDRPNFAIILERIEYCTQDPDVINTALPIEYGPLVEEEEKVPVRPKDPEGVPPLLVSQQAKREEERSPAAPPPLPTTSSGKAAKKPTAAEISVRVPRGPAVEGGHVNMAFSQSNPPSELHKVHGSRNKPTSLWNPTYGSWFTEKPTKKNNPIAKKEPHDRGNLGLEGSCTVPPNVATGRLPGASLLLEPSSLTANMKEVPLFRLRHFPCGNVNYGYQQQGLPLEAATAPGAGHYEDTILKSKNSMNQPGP
T2 sequence (Q9UM73 19-1620 L1196M): as the sequence (Q9UM73 19-1620) above, with L1178M counted along it

For the compound `CC1Oc2cc(cnc2N)-c2c(nn(C)c2C#N)N(C)C(=O)COc2ccc(F)cc21` (single isomer, unassigned) [Compound 16], the 50% inhibitory concentration (IC50) at ALK wild type came to 34.8 nM; at ALK L1196M, 529 nM. With `CC1Oc2cc(cnc2N)-c2c(nn(C)c2C#N)N(C)C(=O)COc2ccc(F)cc21` (single isomer, unassigned) [Compound 17], the IC50 at ALK wild type amounted to 7430 nM.

Consider `CC1Oc2cc(cnc2N)-c2c(nn(C)c2C#N)NC(=O)COc2ccc(F)cc21` (stereo not shown) [Compound 15], for which, at ALK wild type, the concentration for half-maximal inhibition (IC50) was determined as 2370 nM.
